Source: patent US8785473B2, “Plasminogen activator inhibitor-1 inhibitor” (Renascience Co., Ltd., priority 2009, dated 2014)
Marks after values point to notes of the source that are not given here.

What was measured:
[1] = system: rat model of ferric chloride-induced thrombosis; assay: Test Example 3: antithrombotic effect confirmation test in a rat model of ferric chloride-induced thrombosis; type: in vivo; conditions: SD rats, 0.3 mg/kg or 1 mg/kg orally 2 hours before operation, compared to the vehicle group (FIG. 1)
Excerpt: The antithrombotic effect of each of compounds (4), (13), (68), and (79) prepared in Examples 4, 13, 68, and 79 (hereinafter referred to as a test compound) was confirmed using a rat model of ferric chloride-induced thrombosis.
Male 9-week-old SD rats (Japan SLC) were used, and divided into a vehicle group and a test compound group (each having n=10). Two hours before the operation for performing a test, in the test compound group, a 0.5% aqueous sodium carboxymethylcellulose (CMC) solution obtained by suspending a test compound in a mortar was added so that the test compound was orally administered in an amount of 0.3 mg/kg or 1 mg/kg. In the vehicle group, a 0.5% CMC aqueous solution that contained no test compound was orally administered. Two hours after oral administration, the rats in each group were anesthetized using […]., and the following operations were performed on a heat pad that had been kept at 38° C.
An incision was made on the cervical skin, and the left carotid artery was exposed in such a manner that the cervical skeletal muscle was not injured. The adhesion tissue was carefully peeled off. Silk thread was placed over the carotid artery, and filter paper was put on the backside of the carotid artery to prevent effusion and facilitate experiment operations. A semicircular tube 5 mm in length (SP 110, inside diameter: 1.5 mm, produced by Natsume Seisakusho Co., Ltd.) was placed on the filter paper, and the blood vessel was placed in the tube. The carotid artery blood flow was measured using a cuff-type Doppler blood flow meter (inside diameter: 1 mm) placed at the periphery side, and recorded on a recorder (Graphtec WR3320) via an amplifier (Nihon Kohden, RMP-6004M). After the carotid artery blood flow was confirmed, filter paper (Whatman, No. 1, 2.5 mm×4.2 mm), to which 2 μL of physiological saline comprising 35% (w/w) ferric chloride was added dropwise, was wrapped around the origin of the carotid artery (the filter paper was positioned so that the length in the blood vessel circumferential direction was 4.2 mm). […]

PAI-1 [2] = molecular target: T1, PAI-1 (Homo sapiens, UniProt P05121); assay: biochemical; conditions: read-out: PAI-1 activity %
Description: The final mixture contained 50 mM Tris-HCl (pH 8), 150 mM NaCl, 1% DMSO, 0.1% PEG-6000, 0.2 mM CHAPS, 5 nMPAI-1, 2 nM t-PA, 0.2 mM Spectrozyme t-PA synthetic substrate, and the compound (10 μM or 2.5 μM).

PAI-1 [3] = molecular target: T1, PAI-1; assay: Reference Test Example (1): measurement of PAI-1 inhibitory activity (S-2288), comparison with tiplaxtinin; type: biochemical; set-up: purchased Molecular Innovations, Inc. (USA); conditions: concentrations of 35 μM and 50 μM (FIG. 2)
Description: The final mixture contained 100 mM Tris-HCl (pH 8), 30 mM NaCl, 1% DMSO, 0.1% Tween 80, 67 nM PAI-1, 9.8 nM t-PA, 1 mM S-2288, and test compound a or b (20, 35, or 50 μM).
[…] P-nitroaniline removed from the chromogenic substrate (S-2288) by t-PA action was measured using a spectrophotometer at an absorbance of 405 nm at 5-minute intervals for 30 minutes.
Comparative tests were carried out in the same manner using, in place of the above test compounds, a compound (tiplaxtinin) of the formula below that is used as an antithrombotic drug in US clinical trials (concentration: 20, 35, and 50 μM).
FIGS. 2 (A), (B), and (C) show PAI-1 activity (%) when compound a (concentrations: 20, 35, and 50 μM), compound b (concentrations: 20, 35, and 50 μM), and tiplaxtinin (comparative compound) (concentrations: 20, 35, and 50 μM) were added, respectively. The results reveal that compounds a and b had higher PAI-1 activity inhibitory action at concentrations of 35 μM and 50 μM than tiplaxtinin (comparative compound) (PAI-1 inhibitory activity).

PAI-1 [4] = molecular target: T1, PAI-1; assay: Reference Test Example (2): evaluation of fibrinolytic action (fibrin plate, PAI-1 + t-PA); type: biochemical; set-up: purchased Molecular Innovations, Inc. (USA); conditions: mixture of PAI-1, t-PA and test compound on fibrin plate, 18 hours, lysis area
Description: The fibrinolytic action of Compounds a and b were evaluated in accordance with the document (Matsuo, O. et al., Haemostasis, 16, 43-50 (1986)).
Specifically, an aqueous solution (containing 25 mM barbital-sodium, 50 mM NaCl, and 25 mM CaCl2) containing a concentration of 1.5 mg/mL of fibrinogen (produced by Organon Teknica) was added, on a 9 cm-plate, to thrombin dissolved in 0.2 mL of physiological saline (10NIH U/mL: produced by Mochida Pharmaceutical Co., Ltd.), and the mixture was allowed to stand at room temperature for 2 hours. Using this mixture, fibrinolysis assay was conducted.
Namely, a mixture of PAI-1, t-PA, and a test compound was added dropwise to the plate and incubated at room temperature for 18 hours. Then, fibrinolysis due to plasminogen activation was measured from the lysis area on the plate.

[5] = system: mouse model with pulmonary fibrosis artificially induced by bleomycin; assay: Reference Test Example (3): effects on bleomycin-induced pulmonary fibrosis; type: in vivo; conditions: bleomycin mice, 200 mg/kg p.o. twice/day for 14 days
Description: A C57BL/6 mouse (male, body weight: 19 to 21 g) was intraperitoneally anesthetized with pentobarbital, and an incision was made on the cervical organ. Ten mice were used as controls. Bleomycin (produced by Nippon Kayaku Co., Ltd.) (1.5 U/kg) lysed in physiological saline was endotracheally administered to each of the control mice (n=10) twice a day for 14 days. On the other hand, the test mice were subjected to forcible oral administration of compound b (200 mg/kg), suspended in a 0.5% carboxymethyl cellulose aqueous solution, twice a day for 14 days, in addition to the above endotracheal administration. Then, the lung tissues taken from these control mice and test mice were analyzed, and further assayed for hydroxyproline level. The hydroxyproline level in the lung tissues was measured as the hydrolysate level of the lung tissues, according to the method of Kivirikko et al. (Anal. Biochem. 19, 249-255 (1967)). The level (severity) of pulmonary fibrosis was scored from 0 to 8, based on the method of Ashcort et al. (J. Clin. Pathol. 41, 467-470 (1988)). Further, the control mice and the test mice were assayed for plasma PAI-1 activity (ng/mL).

T1 sequence (P05121 24-402): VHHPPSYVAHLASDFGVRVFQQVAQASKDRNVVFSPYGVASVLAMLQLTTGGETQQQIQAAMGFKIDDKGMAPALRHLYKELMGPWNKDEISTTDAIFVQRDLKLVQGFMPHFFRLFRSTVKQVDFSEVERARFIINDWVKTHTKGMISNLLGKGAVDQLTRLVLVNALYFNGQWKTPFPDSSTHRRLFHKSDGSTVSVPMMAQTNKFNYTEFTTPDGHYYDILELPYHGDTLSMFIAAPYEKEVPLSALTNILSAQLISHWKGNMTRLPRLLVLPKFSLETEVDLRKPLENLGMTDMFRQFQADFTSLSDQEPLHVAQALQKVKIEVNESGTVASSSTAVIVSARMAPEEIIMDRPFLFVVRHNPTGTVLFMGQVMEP

SMILES	activity at 2.5 µM (PAI-1 [2])	activity at 10 µM (PAI-1 [2])	initial occlusion time (antithrombotic effect) [1]	also measured
O=C(COc1cccc(-c2ccoc2)c1)Nc1ccc(Cl)cc1C(=O)O [Example 13, 5-chloro-2-({[3-(furan-3-yl)phenoxy]acetyl}amino)benzoic acid]			significantly prolonged	
CCC(CC(=O)Nc1scc(-c2ccccc2)c1C(=O)O)C(=O)Nc1scc(-c2ccccc2)c1C(=O)O (stereo not shown) [compound a, 2-[3-(3′-Carboxy-4′-phenylthiophen-2′-ylcarbamoyl)-pentanoylamino]-4-phenylthiophen-3-carboxylic acid]				PAI-1 activity inhibitory action compared with tiplaxtinin (PAI-1 [3]): higher; fibrinolytic action (PAI-1 [4]): inhibit the suppression of fibrinolysis caused by PAI-1
CCC(CC(=O)Nc1scc(-c2cccs2)c1C(=O)O)C(=O)Nc1scc(-c2cccs2)c1C(=O)O (stereo not shown) [compound b, 2-[3-(3′-carboxy-4′-thienylthiophen-2′-ylcarbamoyl)-pentanoylamino]-4-thienylthiophen-3-carboxylic acid]				Hydroxyproline level in the lung tissues ([5]; n=10, mean±SE): 204.2 ± 9.5^b μg/lung; Plasma PAI-1 activity ([5]; n=10, mean±SE): 1.2 ± 0.1^b ng/mL; fibrosis score ([5]; scored from 0 to 8, bleomycin alone 4.7±0.17): 2.9±0.42; PAI-1 activity inhibitory action compared with tiplaxtinin (PAI-1 [3]): higher; fibrinolytic action (PAI-1 [4]): inhibit the suppression of fibrinolysis caused by PAI-1
O=C(Nc1ccc(Cl)cc1C(=O)O)c1cccc(-c2ccccc2)c1 [Example 4, 2-[(biphenyl-3-ylcarbonyl)amino]-5-chlorobenzoic acid]			significantly prolonged	
O=C(Nc1ccc(Cl)cc1C(=O)O)c1cccc(C2=CCCCC2)c1 [Example 79, 5-chloro-2-({[3-(cyclohex-1-en-1-yl)phenyl]carbonyl}amino)benzoic acid]			significantly prolonged	

Second part, led by results:

activity at 2.5 µM (PAI-1 [2])	activity at 10 µM (PAI-1 [2])	SMILES	initial occlusion time (antithrombotic effect) [1]	also measured
69.9%	0.4%	O=C(COc1ccc(-c2ccccc2)cc1)Nc1ccc(-c2ccoc2)cc1C(=O)O [Example 46, 2-{[(biphenyl-4-yloxy)acetyl]amino}-5-(furan-3-yl)benzoic acid]		
76.9%	0.9%	O=C(COc1cccc(-c2ccccc2)c1)Nc1ccc(-c2ccccc2)cc1C(=O)O [Example 45, 4-{[(biphenyl-3-yloxy)acetyl]amino}biphenyl-3-carboxylic acid]		
88.6%	22.1%	CC(C(=O)Nc1ccc(Cl)cc1C(=O)O)(c1ccccc1)c1ccccc1 [Example 39, 5-chloro-2-[(2,2-diphenylpropanoyl)amino]benzoic acid]		
